Reference: patent US20120034613A1, “Apparatus and Method for Testing Relationships Between Gene Expression and Physical Appearance of Skin” (NSE Products, Inc., priority 2010, published 2012)

Test system: EpidermFT™ Skin Model (EFT-400) full thickness skin cultures
Experiment: Affymetrix GeneChip HG U133 Plus 2.0 microarray global gene expression, agent-exposed vs untreated skin cultures
Assay type: cell-based, human
[1] = probe 239272_at, Table 3 skin structure
[2] = probe 1552319_a_at, 0.5%, 24 hr
[3] = probe 1552578_a_at, 0.5%, 24 hr
[4] = probe 1554252_a_at, 0.5%, 24 hr
[5] = probe 1554741_s_at, 0.5%, 24 hr
[6] = probe 1554921_a_at, 0.5%, 24 hr
[7] = probe 1554980_a_at, 0.5%, 24 hr
[8] = probe 1554997_a_at, 0.5%, 24 hr
[9] = probe 1555103_s_at, 0.5%, 24 hr
[10] = probe 1555416_a_at, 0.5%, 24 hr
[11] = probe 1556410_a_at, 0.5%, 24 hr
[12] = probe 1558143_a_at, 0.5%, 24 hr
[13] = tissue exposed to salicin, skin structure gene, Table 4
[14] = tissue exposed to salicin, skin structure gene, Table 4, direction down
[15] = tissue exposed to salicin, skin structure gene, Table 4, direction up

## OCc1ccccc1O[C@@H]1O[C@H](CO)[C@@H](O)[C@H](O)[C@H]1O [Salicin, 2-(Hydroxymethyl)phenyl β-D-glucospyranoside]
Probe 223217_s_at, 0.5%, 24 hr
  Direction NFKBIZ: up
  Fold change NFKBIZ: 2.35
Probe 223222_at, 0.5%, 24 hr
  Direction SLC25A19: up
  Fold change SLC25A19: 2.243
Probe 223541_at, 0.5%, 24 hr
  Direction HAS3: down
  Fold change HAS3: 3.713
Probe 224220_x_at, 0.5%, 24 hr
  Direction TRPC4: up
  Fold change TRPC4: 2.708
Probe 224329_s_at, 0.5%, 24 hr
  Direction CNFN: down
  Fold change CNFN: 5.442
Probe 225245_x_at, 0.5%, 24 hr
  Direction H2AFJ: down
  Fold change H2AFJ: 2.328
Probe 225337_at, 0.5%, 24 hr
  Direction ABHD2: up
  Fold change ABHD2: 2.704
Probe 225566_at, 0.5%, 24 hr
  Direction NRP2: up
  Fold change NRP2: 3.198
Probe 227271_at, 0.5%, 24 hr
  Direction FGF11: down
  Fold change FGF11: 2.672
Probe 227361_at, 0.5%, 24 hr
  Direction HS3ST3B1: up
  Fold change HS3ST3B1: 3.41
Probe 227487_s_at, 0.5%, 24 hr
  Direction SERPINE2: up
  Fold change SERPINE2: 3.148
Probe 228082_at, 0.5%, 24 hr
  Direction ASAM: up
  Fold change ASAM: 2.108
Probe 228575_at, 0.5%, 24 hr
  Direction IL20RB: down
  Fold change IL20RB: 10.04
Probe 229199_at, 0.5%, 24 hr
  Direction SCN9A: up
  Fold change SCN9A: 3.818
Probe 229228_at, 0.5%, 24 hr
  Direction CREB5: up
  Fold change CREB5: 9.768
Probe 230398_at, 0.5%, 24 hr
  Direction TNS4: down
  Fold change TNS4: 2.738
Probe 230494_at, 0.5%, 24 hr
  Direction SLC20A1: up
  Fold change SLC20A1: 2.526
Probe 231015_at, 0.5%, 24 hr
  Direction KLF15: up
  Fold change KLF15: 2.338
Probe 231031_at, 0.5%, 24 hr
  Direction KGFLP2: up
  Fold change KGFLP2: 3.34
Probe 232165_at, 0.5%, 24 hr
  Direction EPPK1: down
  Fold change EPPK1: 12.4
Probe 234513_at, 0.5%, 24 hr
  Direction ELOVL3: down
  Fold change ELOVL3: 2.048
Probe 235148_at, 0.5%, 24 hr
  Direction KRTCAP3: down
  Fold change KRTCAP3: 2.158
Probe 235405_at, 0.5%, 24 hr
  Direction GSTA4: down
  Fold change GSTA4: 3.3
Probe 238567_at, 0.5%, 24 hr
  Direction SGPP2: down
  Fold change SGPP2: 5.641
[1]
  Direction MMP28: down
  Fold change MMP28: 4.074
Probe 239273_s_at, 0.5%, 24 hr
  Direction MMP28: down
  Fold change MMP28: 2.678
Probe 244852_at, 0.5%, 24 hr
  Direction DSEL: up
  Fold change DSEL: 2.251
[2]
  Direction KLK8: down
  Fold change KLK8: 4.867
[3]
  Direction MYO3B: up
  Fold change MYO3B: 2.338
Probe 1553960_at, 0.5%, 24 hr
  Direction SNX21: down
  Fold change SNX21: 2.031
[4]
  Direction LASS3: down
  Fold change LASS3: 15.34
[5]
  Direction FGF7 /// KGFLP1 /// KGFLP2: up
  Fold change FGF7 /// KGFLP1 /// KGFLP2: 2.506
[6]
  Direction SCEL: down
  Fold change SCEL: 6.1
[7]
  Direction ATF3: up
  Fold change ATF3: 2.623
[8]
  Direction PTGS2: up
  Fold change PTGS2: 6.813
[9]
  Direction FGF7: up
  Fold change FGF7: 2.35
[10]
  Direction ALOX15B: down
  Fold change ALOX15B: 2.215
[11]
  Direction KRTAP19-1: up
  Fold change KRTAP19-1: 24.65
[12]
  Direction BCL2L11: up
  Fold change BCL2L11: 2.347
Probe 1559224_at, 0.5%, 24 hr
  Direction LCE1E: down
  Fold change LCE1E: 4.811
Probe 1560531_at, 0.5%, 24 hr
  Direction LCE1B: down
  Fold change LCE1B: 71.235
Probe 1561042_at, 0.5%, 24 hr
  Direction ITGB1: up
  Fold change ITGB1: 2.151
Probe 1569410_at, 0.5%, 24 hr
  Direction FLG2: down
  Fold change FLG2: 45.91
[13]
  Direction COL4A1 (211981_at): up
  Direction FBN2 (203184_at): up
  Direction FN1 (214702_at): up
  Direction FNDC3A (215910_s_at): up
  Direction FOXO1 (202724_s_at): up
  Direction IGFBP5 (211958_at): up
  Direction ITGB1 (1561042_at): up
  Direction KRT5 (201820_at): down
  Direction KRT9 (208188_at): down
  Direction MMP28 (239272_at): down
  Direction SOD2 (215078_at): up
  Direction TIMP3 (201150_s_at): up
  Direction TNC (216005_at): up
  Direction TNFAIP3 (202643_s_at): up
[14]
  Fold change KRT5 (201820_at): 3.737
  Fold change KRT9 (208188_at): 3.737
  Fold change MMP28 (239272_at): 4.074
[15]
  Fold change COL4A1 (211981_at): 2.121
  Fold change FBN2 (203184_at): 2.028
  Fold change FN1 (214702_at): 2.71
  Fold change FNDC3A (215910_s_at): 3.663
  Fold change FOXO1 (202724_s_at): 2.098
  Fold change IGFBP5 (211958_at): 2.712
  Fold change ITGB1 (1561042_at): 2.151
  Fold change SOD2 (215078_at): 5.712
  Fold change TIMP3 (201150_s_at): 2.058
  Fold change TNC (216005_at): 2.719
  Fold change TNFAIP3 (202643_s_at): 6.915
